Like-named read-outs stand apart in the source and are kept apart here.
Key:
[1] = test system: GFP-labeled iPSC-derived human cortical glutamatergic neurons; assay: cells; assay type: cell-based; conditions: for inhibition of cortical neurite outgrowth (total neurite length): 24 and 48 h treatment, in words
[2] = test system: GFP-labeled iPSC-derived human cortical glutamatergic neurons; conditions: for AC50: read-out: Viability AC50 (48hr); for effect on number of objects: in words
in vitro = conditions: PAMPA, PAMPA-BBB Pe
[3] = test system: human glial and neuroblastoma cell lines; conditions: malignant glioma tumor cells; cited from earlier work
[4] = test system: GFP-labeled iPSC-derived human cortical glutamatergic neurons; assay: cells; conditions: Neuron, 48 h
[5] = test system: glioblastoma multiforme (GBM); conditions: mouse, in vivo, ip; cited from earlier work
offspring neurogenesis = conditions: rat, in vivo, po; cited from earlier work
[6] = Table S1, 60 min, room temperature, 0.05 mM
[7] = Homo sapiens, Neuron, rounded values, read-out: AC50 (neurite outgrowth inhibition)
[8] = Homo sapiens, Neuron, total neurite length, 48 h treatment, read-out: TNL AC50 (48 h)
[9] = Table 1, 60 min, room temperature, 0.05 mM
[10] = Table S2: compounds exhibiting moderate to high PAMPA-BBB permeability
[11] = read-out: Viability AC50 (48 h)
[12] = Homo sapiens, Neuron, Table S1, total neurite length, 48 hr, head prints no unit, µM per Table 1 and Fig. 5, read-out: TNL AC50 (48 hr)
[13] = read-out: Viability AC50 (48hr)

For 2 ,4 -DIHYDROXYCHALCONE, the AC50 ([1]; Table S1, total neurite length, 48 hr, head prints no unit, µM per Table 1 and Fig. 5, read-out: TNL AC50 (48 hr)) was 16.9 µM, the “PAMPA-BBB Pe” value [6] was 222.92 10^-6 cm/sec and the AC50 ([2]; Table S1, 48 hr, head prints no unit, µM per Table 1 and Fig. 5) was 20.9 µM.

For `COc1ccc(-c2cc(=O)c3ccccc3o2)cc1OC` [3’,4’-dimethoxyflavone], the AC50 [1, 7] was 0.7 µM, the AC50 [1, 8] was 0.759 µM and the “PAMPA-BBB Pe” value [9] was 249.21 10 × 10^− 6 cm/sec. For the same compound, the “PAMPA-BBB Pe” value [10] was 249 10^-6 cm/sec, the “Viability AC50 (48 h)” value ([2]; 48 h treatment) was “inactive” and the Papp (in vitro; [6]) was 249 ×10⁻⁶ cm/s.

In the case of `C/C=C(\C)C(=O)N[C@@H](c1ccccc1)[C@@H](O)C(=O)O[C@H]1C[C@@]2(O)[C@@H](OC(=O)c3ccccc3)[C@@H]3[C@]4(OC(C)=O)CO[C@@H]4C[C@H](O)[C@@]3(C)C(=O)[C@H](OC(C)=O)C(=C1C)C2(C)C` [Cephalomannine], the AC50 [1, 7] is reported as 0.7 µM, the AC50 [1, 8] is reported as 0.688 µM and the “PAMPA-BBB Pe” value [9] is reported as 78.57 10 × 10^− 6 cm/sec. For the same compound, the “PAMPA-BBB Pe” value [10] was 79 10^-6 cm/sec, the “Viability AC50 (48 h)” value ([2]; 48 h treatment) was “inactive” and the Papp (in vitro; [6]) was 78.6 ×10⁻⁶ cm/s. The “cytotoxicity relative to taxol (less cytotoxic)” value [3] was ~ 35%.

With `COc1cc(-c2cc(=O)c3c(O)cc(O)cc3o2)ccc1O` [Chrysoeriol] the AC50 [1, 7] was 2.2 µM, the AC50 [1, 8] was 2.22 µM and the “PAMPA-BBB Pe” value [9] was 178.56 10 × 10^− 6 cm/sec. For the same compound, the “Viability AC50 (48 h)” value ([2]; 48 h treatment) was “inactive” and the Papp (in vitro; [6]) was 179 ×10⁻⁶ cm/s.

With `CC(=O)O[C@H]1[C@H]2O[C@]23[C@@H]2CC[C@@H]4C[C@@H](O)CC[C@]4(C)[C@H]2CC[C@]3(C)[C@H]1c1ccc(=O)oc1` [Cinobufagin] the AC50 ([1]; Homo sapiens, Neuron, 48 h, read-out: TNL AC50 (48 h)) was 0.618 µM, the AC50 ([1]; Homo sapiens, Neuron, read-out: AC50 (neurite outgrowth inhibition)) was 0.6 µM and the AC50 [4, 11] was 0.093 µM. For the same compound, the “decrease in luminescence intensity of the brain tumor” value [5] was 70% and the Papp (in vitro) was 45.4 ×10⁻⁶ cm/s.

In the case of `O=c1oc2c(O)c(O)cc3c(=O)oc4c(O)c(O)cc1c4c23` [Ellagic acid], the “inhibition of cortical neurite outgrowth (total neurite length)” value [1] is reported as “inhibited cortical neurite outgrowth”, the AC50 [1, 7] is reported as 3.1 µM and the AC50 [1, 8] is reported as 3.05 µM. For the same compound, the “PAMPA-BBB Pe” value [9] was 119.5 10 × 10^− 6 cm/sec, the “PAMPA-BBB Pe” value [10] was 120 10^-6 cm/sec and the “effect on number of objects” value ([2]; 48 h treatment) was “minimal effects”. It also gave an AC50 [4, 11] of 4 µM and a Papp (in vitro; [6]) of 120 ×10⁻⁶ cm/s.

In the case of `Cc1nccc2c1[nH]c1ccccc12` [Harmane], the AC50 [1, 12] is reported as 3.21 µM, the AC50 [1, 8] is reported as 3.21 µM and the “PAMPA-BBB Pe” value (PAMPA) is reported as 59.65 10 × 10^− 6 cm/sec. The AC50 [4, 11] was 12.2 µM and the Papp (in vitro) was 59.6 ×10⁻⁶ cm/s.

With `COc1ccc2c(c1OC)C(=O)O[C@@H]2[C@H]1c2cc3c(cc2CCN1C)OCO3` [Hydrastine] the AC50 [1, 12] was 26.1 µM, the “PAMPA-BBB Pe” value [10] was 57 10^-6 cm/sec and the AC50 [4, 13] was 22.8 µM. For the same compound, the Papp (in vitro; [6]) was 57.4 ×10⁻⁶ cm/s.

For `COc1ccc(/C=C/C(=O)c2cc(O)ccc2O)cc1` [NCGC00096016-04], the AC50 [1, 12] was 12.9 µM, the “PAMPA-BBB Pe” value [10] was 300 10^-6 cm/sec and the AC50 [4, 13] was 19.8 µM. The Papp (in vitro; [6]) was 300 ×10⁻⁶ cm/s.

For `COc1cc2c(OC(C)=O)c3c(c(-c4ccc5c(c4)OCO5)c2cc1OC)C(=O)OC3` [NCGC00161918-01], the AC50 [1, 12] was 3.1 µM, the “PAMPA-BBB Pe” value [10] was 349 10^-6 cm/sec and the AC50 [4, 13] was 9.92 µM. For the same compound, the Papp (in vitro; [6]) was 349 ×10⁻⁶ cm/s.

In the case of `COc1cc(O)c2c(c1)C1OC1C[C@H](O)[C@H](O)C(=O)C=CC[C@H](C)OC2=O` (stereo partly drawn) [NCGC00183677-03], the AC50 [1, 12] is reported as 35.9 µM, the “PAMPA-BBB Pe” value [10] is reported as 69 10^-6 cm/sec and the AC50 [4, 13] is reported as 28.2 µM. For the same compound, the Papp (in vitro; [6]) was 69.3 ×10⁻⁶ cm/s.

In the case of `COc1ccc(-c2coc3c(O)c(O)c(OC)cc3c2=O)cc1` [NCGC00264029-02], the AC50 [1, 12] is reported as 30.1 µM, the “PAMPA-BBB Pe” value [10] is reported as 40 10^-6 cm/sec and the AC50 [4, 13] is reported as 25.6 µM. For the same compound, the Papp (in vitro; [6]) was 40.1 ×10⁻⁶ cm/s.

For `Cc1c(O)c(O)cc2c1CC=C1[C@@]2(C)CC[C@@]2(C)[C@H]3C[C@](C)(C(=O)O)CC[C@]3(C)CC[C@]12C` [NCGC00264082-02], the AC50 [1, 12] was 2.37 µM, the “PAMPA-BBB Pe” value [10] was 288 10^-6 cm/sec and the AC50 [4, 13] was 4.3 µM. It also gave a Papp (in vitro; [6]) of 288 ×10⁻⁶ cm/s.

For `O=c1cc(N2CCOCC2)oc2c(-c3cccc4c3sc3ccccc34)cccc12` [NU-7441, 8-(4-DIBENZOTHIENYL)-2-(4-MORPHOLINYL)-4H-1-BENZOPYRAN-4-ONE, reference compound], the AC50 [1, 12] was 2.85 µM, the AC50 [1, 8] was 2.85 µM and the “PAMPA-BBB Pe” value [9] was 101.9 10 × 10^− 6 cm/sec. The AC50 [4, 11] was 7.6 µM, the AC50 [4, 13] was 7.6 µM and the Papp (in vitro; [6]) was 102 ×10⁻⁶ cm/s.

For `C=C(C)[C@@H]1CCC2=CC(=O)C[C@@H](C)[C@]2(C)C1` [Nootkatone], the AC50 [1, 12] was 13.1 µM, the “PAMPA-BBB Pe” value [10] was 63 10^-6 cm/sec and the AC50 [4, 13] was 3.98 µM. For the same compound, the Papp (in vitro; [6]) was 63.3 ×10⁻⁶ cm/s.

In the case of `COc1ccc2c(c1OC)C(=O)O[C@@H]2[C@H]1c2c(cc3c(c2OC)OCO3)CCN1C` [Noscapine, reference compound], the AC50 [1, 12] is reported as 1.06 µM, the AC50 [1, 7] is reported as 1.1 µM and the AC50 [1, 8] is reported as 1.06 µM. For the same compound, the “PAMPA-BBB Pe” value (PAMPA) was 74.54 10 × 10^− 6 cm/sec, the AC50 [4, 11] was 11.6 µM and the AC50 [4, 13] was 11.6 µM. For the same compound, the Papp (in vitro) was 74.5 ×10⁻⁶ cm/s.

With `C/C(=C\c1csc(C)n1)[C@@H]1C[C@@H]2O[C@]2(C)CCC[C@H](C)[C@H](O)[C@@H](C)C(=O)C(C)(C)[C@@H](O)CC(=O)O1` [Patupilone] the AC50 [1, 12] was 0.0068 µM, the AC50 [1, 8] was 0.007 µM and the “PAMPA-BBB Pe” value [9] was 10.52 10 × 10^− 6 cm/sec. For the same compound, the “Viability AC50 (48 h)” value ([2]; 48 h treatment) was “inactive”, the Papp (in vitro; [6]) was 10.5 ×10⁻⁶ cm/s and the Papp (in vitro; [10]) was 11 ×10⁻⁶ cm/s.

In the case of `COc1cc(/C=C/C(=O)N2CCC=CC2=O)cc(OC)c1OC` [Piperlongumine], the AC50 [1, 8] is reported as 3.74 µM, the “PAMPA-BBB Pe” value [9] is reported as 90.26 10 × 10^− 6 cm/sec and the “Viability AC50 (48 h)” value ([2]; 48 h treatment) is reported as “Inactive”. For the same compound, the Papp (in vitro; [6]) was 90.3 ×10⁻⁶ cm/s and the Papp (in vitro; [10]) was 90 ×10⁻⁶ cm/s.

For `CC1=CC(=O)c2c(O)cccc2C1=O` [Plumbagin], the “inhibition of cortical neurite outgrowth (total neurite length)” value [1] was “inhibited cortical neurite outgrowth”, the AC50 [1, 7] was 0.9 µM and the AC50 [1, 8] was 0.927 µM. For the same compound, the “PAMPA-BBB Pe” value [9] was 68.8 10 × 10^− 6 cm/sec, the “PAMPA-BBB Pe” value [10] was 69 10^-6 cm/sec and the “effect on number of objects” value ([2]; 48 h treatment) was “minimal effects”. It also gave an AC50 [4, 11] of 1.32 µM and a Papp (in vitro; [6]) of 68.8 ×10⁻⁶ cm/s.

For `COC(=O)[C@H]1[C@H]2C[C@@H]3c4[nH]c5cc(OC)ccc5c4CCN3C[C@H]2C[C@@H](OC(=O)c2cc(OC)c(OC)c(OC)c2)[C@@H]1OC` [Reserpine, reference compound], the AC50 [1, 12] was 31.8 µM, the “PAMPA-BBB Pe” value (PAMPA) was 90 10^-6 cm/sec and the AC50 [4, 13] was 35.2 µM. It also gave a Papp (in vitro) of 90.1 ×10⁻⁶ cm/s.

For `COc1cc2c(c3oc4cccc(O)c4c(=O)c13)[C@@H]1C=CO[C@@H]1O2` [Sterigmatocystin], the AC50 ([1]; read-out: AC50 (neurite outgrowth inhibition)) was 2.3 µM, the AC50 ([1]; read-out: TNL AC50 (48 h)) was 2.32 µM and the AC50 ([1]; read-out: TNL AC50 (48 hr)) was 2.32 µM. The “PAMPA-BBB Pe” value (PAMPA) was 221 10 × 10^− 6 cm/sec, the “Viability AC50 (48 h)” value [2] was “inactive” and the Papp (in vitro) was 221 ×10⁻⁶ cm/s. For the same compound, the “adverse effects on offspring neurogenesis” value (offspring neurogenesis) was “no adverse effects”.

With `C=CC[C@@H]1/C=C(\C)C[C@H](C)C[C@H](OC)[C@H]2O[C@@](O)(C(=O)C(=O)N3CCCC[C@H]3C(=O)O[C@H](/C(C)=C/[C@@H]3CC[C@@H](O)[C@H](OC)C3)[C@H](C)[C@@H](O)CC1=O)[C@H](C)C[C@@H]2OC` [Tacrolimus, reference compound] the AC50 [1, 12] was 2.65 µM, the AC50 [1, 8] was 2.65 µM and the “PAMPA-BBB Pe” value [9] was 154.13 10 × 10^− 6 cm/sec. The “PAMPA-BBB Pe” value [10] was 154 10^-6 cm/sec, the AC50 [4, 11] was 4.19 µM and the AC50 [4, 13] was 4.19 µM. The Papp (in vitro; [6]) was 154 ×10⁻⁶ cm/s.

For `CC(/C=C/C(=O)NO)=C\[C@@H](C)C(=O)c1ccc(N(C)C)cc1` [Trichostatin A], the AC50 [1, 7] was 1.7 µM, the AC50 [1, 8] was 1.66 µM and the “PAMPA-BBB Pe” value [9] was 54.74 10 × 10^− 6 cm/sec. For the same compound, the “PAMPA-BBB Pe” value [10] was 55 10^-6 cm/sec, the AC50 [4, 11] was 0.472 µM and the Papp (in vitro; [6]) was 54.7 ×10⁻⁶ cm/s.

For `CC[C@]1(O)C[C@H]2CN(CCc3c([nH]c4ccccc34)[C@@](C(=O)OC)(c3cc4c(cc3OC)N(C=O)[C@H]3[C@@](O)(C(=O)OC)[C@H](OC(C)=O)[C@]5(CC)C=CCN6CC[C@]43[C@@H]65)C2)C1` [Vincristine, reference compound], the AC50 ([1]; read-out: TNL AC50 (48 hr)) was 30.4 µM, the “PAMPA-BBB Pe” value (PAMPA) was 21.19 10^-6 cm/sec and the AC50 [2] was 37.2 µM.
